Results on 15 substances are retold here after patent publication US20100069308A1, “Surfaces containing antibacterial polymers” (priority 2008, published 2010).

Experiment [1] deals with E. coli. The settings on record: cited from earlier work.
In experiment [2] the test system is B. subtilis. The settings on record: cited from earlier work.
Experiment [3] deals with Staphylococcus aureus. The following applies: cited from earlier work.
Experiment [4] relates to Streptococcus pneumoniae. The settings on record: cited from earlier work.
Experiment [5] relates to Haemophilus influenzae. The settings on record: cited from earlier work.
For experiment [6], the system named is Enterococcus faecalis. The following applies: cited from earlier work.
The subject of experiment [7] is bacterial colonies. The experiment in a line: Antibacterial activity in the presence of biological serum (FIG. 1, number of bacterial colonies vs concentration). The class given is cell-based. The settings on record: after 24 hours in biological serum. As to the method: Due to their mechanism of action, such antibacterial peptides should not be susceptible to resistance. […] In FIG. 1, panels 100A and 100B show the number of bacterial colonies as a function of the concentration of pexiganan 101A/B and ID 1 103 A/B, after 2 and 24 hours respectively, in biological serum. […] Accordingly, a peptide alternative that kills bacteria by a mechanism similar to that of antibacterial peptides but without the biological susceptibility would provide greater protection against bacterial colonization.
FIG. 1 depicts the activity of ID 1 and an antibacterial peptide (pexiganan) in the presence of biological serum.

For experiment [8], the system named is Escherichia coli. The settings on record: cited from earlier work.
The test system of experiment [9] is Psuedomonas aeruginosa. The settings on record: cited from earlier work.

On to H—(NLys-Nssb-Nspe)4-NH2 [ID 2], for which the “E. coli MIC” value in [1] was 31 µM. Besides, the “B. subtilis MIC” value in experiment [2] is 3.9 µM.
For the substance “H—(NLys-Nssb-Nspe-NLys-Nssb-Nsna)2-NH2 [ID 8]”, the “E. coli MIC” value in experiment [1] was 7.2 µM. For the same substance, in experiment [2], the “B. subtilis MIC” value was “.93 µM”.
As to H—(NLys-Nrpe-Nrpe)4-NH2 [ID 3], the “E. coli MIC” value in experiment [1] is 3.5 µM. Moreover, the “B. subtilis MIC” value in [2] is “.88 µM”.
In the case of “H-NLys-Nssb-Nspe-Nssb-Nspe-NLys-Nspe-NLys-Nssb-Nssb-Nspe-NLys-NH2 [ID 15]”, the “E. coli MIC” value in experiment [1] is 3.1 µM. For the same substance, the “B. subtilis MIC” value in experiment [2] is 15 µM.
Consider “H—(NLys-Nspe-Nspe-NLys-Nspe-NHis)2-NH2 [ID 10]”, for which, in experiment [1], the “E. coli MIC” value was 3.5 µM. Moreover, the “B. subtilis MIC” value in experiment [2] was 6.9 µM.
For the substance H—(NLys-Nspe-Nspe)5-NH2 [ID 6], the “E. coli MIC” value in experiment [1] is 5.5 µM. Moreover, the “B. subtilis MIC” value in experiment [2] is 1.4 µM.
In the case of “H—(NLys-Nspe-Nspe-NLys-Nspe-L-Pro-(NLys-Nspe-Nspe)2-NH2 [ID 11]”, the “E. coli MIC” value in experiment [1] was 3.1 µM. Besides, the “B. subtilis MIC” value in experiment [2] is 1.6 µM.
With “H—(NLys-Nspe-Nspe-NLys-Nspe-Nsna)2-NH2 [ID 9]”, the “E. coli MIC” value in experiment [1] is 3.3 µM. For the same substance, the “B. subtilis MIC” value in [2] was 1.6 µM.
With H—(NLys-Nspe-Nspe)4-NH2 [ID 1], the MIC in experiment [3] is 3.4 µM; in experiment [4], 1.7 to 3.4 µM; in [5] it was 6.9 µM; in experiment [6], 3.4 to 6.9 µM; in [8], 14 to 28 µM; in [9], 28 µM. Also, the “E. coli MIC” value in [1] is 3.5 µM. Besides, the “B. subtilis MIC” value in experiment [2] is “.88 µM”. Moreover, the “Activity (number of bacterial colonies) in biological serum” value in experiment [7] is “retains activity”.
As to H—(NLys-Nspe-Nspe)2-NH2 [ID 4], the “E. coli MIC” value in experiment [1] is 27 µM. Besides, the “B. subtilis MIC” value in experiment [2] is 27 µM.
Regarding H—(NLys-Nsmb-Nspe)4-NH2 [ID 7], the “E. coli MIC” value in experiment [1] is 7.4 µM. Further, the “B. subtilis MIC” value in experiment [2] was “.95 µM”.
As for H—(NLys)4-(Nspe)8-NH2 [ID 14], the “E. coli MIC” value in experiment [1] was 6.9 µM. Moreover, the “B. subtilis MIC” value in experiment [2] is 1.7 µM.
For H—(NLys-Nspe-Nspe)3-NH2 [ID 5], the “E. coli MIC” value in [1] was 9.1 µM. Besides, the “B. subtilis MIC” value in experiment [2] was 1.2 µM.
Turning to “H—(NLys-Nspe-Nspe-NGlu-Nspe-Nspe)2-NH2 [ID 12]”, the “E. coli MIC” value in experiment [1] was more than 110 µM. For the same substance, the “B. subtilis MIC” value in [2] is 6.9 µM.
H—(NGlu-Nspe-Nspe)4-NH2 [ID 13]: in [1], the “E. coli MIC” value was more than 219 µM. Further, in [2], the “B. subtilis MIC” value is more than 219 µM.
